Experimental data reported in patent US7608289B2, “Food supplemented with a carnitine, suitable for stimulating the biosynthesis of polyunsaturated fatty acids from the saturated fatty acids contained in the food” (Sigma-Tau Industrie Farmaceutiche Riunite S.p.A., priority 1999, dated 2009).

Columns and labels:
[1] = Plasma lipid test: polyunsaturated to saturated fatty acid ratio in rabbits on milk diet plus carnitines; assay type: in vivo, New Zealand male rabbits; settings: plasma lipids, carnitines given with milk diet, compared to controls
Text: (§1) For these tests a batch of New Zealand male rabbits with a mean body weight of 3.7 kg was used, which, after a period of acclimatisation on a standard diet for eight days, were divided into different groups. One group received standard diet alone, while a second group received unskimmed milk mixed with pellets of the normal diet whose final composition was as follows: 4% fats, 24% proteins, 58% carbohydrates, 0.7% fibre, 10% water, 3% minerals and 1% vitamins. […]
(§2) After four weeks of treatment, blood samples were taken from the marginal vein of the ear and the plasma lipids obtained were subjected to measurement of the percentages of both saturated fatty acids and polyunsaturated fatty acids. The percentage amounts of unsaturated omega-3 fatty acids present in liver samples taken from the same animals were also measured. While total lipids were measured according to the method described by Schanfeld (Schanfeld G., J. Clin. Invest., 226:497, 1957) and Folch (Folch J., J. Biol. Chem., 226:497, 1957), the triglycerides and phospholipids were measured according to the method described by Terstra (Terstra A. H. M., Anal. Biochem., 11:149, 1981) and the n-3 and n-6 fatty acids according to the method described by Nestel (Nestel P. J., Ann. Rev. Nutr., 10:149, 1990) and Cevec (Cevec G., Biochemistry, 30:7:7186, 1991).

[2] = n-3 and n-6 fatty acids in hepatic phospholipids of rabbits on the diets; assay type: in vivo, New Zealand male rabbits; settings: liver specimens, carnitines added to the milk diet
Text: as §1, §2

SMILES	change of the ratio of polyunsaturated to saturated fatty acids (in words) [1]	increase in n-3 fatty acids / improvement of n-3 to n-6 ratio in liver (in words) [2]
CC(=O)O[C@H](CC(=O)[O-])C[N+](C)(C)C [acetyl L-carnitine]	particularly evident	
CCC(=O)O[C@H](CC(=O)[O-])C[N+](C)(C)C [propionyl L-carnitine]	particularly evident	most active compound
